Laboratory results taken from patent publication US20150072416A1, “METABOLITE FOR IMPROVING PRODUCTION, MAINTENANCE AND PROLIFERATION OF PLURIPOTENT STEM CELLS, COMPOSITION COMPRISING THE SAME, AND METHOD OF CULTURING PLURIPOTENT STEM CELL USING THE SAME” (KOREA RESEARCH INSTITUTE OF BIOSCIENCE AND BIOTENOLOGY, priority 2012, published 2015).

Experiments:
[1] = test system: human embryonic stem cells and human induced pluripotent stem cells; test: Maintenance of undifferentiated state of pluripotent stem cells (morphology, AP staining); type: cell-based; details: for undifferentiated state in UM: 0.1 mM nicotinamide added to UM
Excerpt: Human embryonic stem cells (hESC) H9 (NIH Code, WA09; WiCell Research Institute, Madison, Wis.) and H1 (NIH Code, WA01; WiCell Research Institute) and induced pluripotent stem cells (hiPSC) were each cultured with hESC culture medium (unconditioned medium; UM) or MEF-CM (conditioned medium) on γ-irradiated MEFs (mouse embryonic fibroblasts) or on plates coated with Matrigel (BD Biosciences, Franklin Lakes, N.J.). The cultured human embryonic stem cells and induced pluripotent stem cells were treated with collagenase IV (1 mg/ml; Invitrogen) or dispase (1 mg/ml; Invitrogen) once a week and subcultured. MEF-CM was prepared as γ-irradiated MEF according to a known method (Xu C. Nat Biotechnol 19, 971-974) and supplemented with 8 ng/ml of bFGF. UM contained 80% DMEM/F12, 20% knockout serum replacement (KSR, Invitrogen, Carlsbad, Calif.), 1% non-essential amino acids (NEAA, Invitrogen), 1 mM L-glutamine (Invitrogen), 0.1 mM β-mercaptoethanol (Sigma, St. Louis, Mo.) and 6 ng/ml bFGF (basic fibroblast growth factor, Invitrogen). Particularly, for culture in the absence of feeder cells and serum, human embryonic stem cells and human induced pluripotent stem cells were cultured in mTeSR1 medium (StemCell Technologies). Human newborn foreskin fibroblasts (hFF, ATCC, catalog number CRL-2097; American Type Culture Collection, Manassas, Va.) were cultured in a DMEM medium containing 10% FBS (fetal bovine serum, Invitrogen), 1% non-essential amino acids, 1 mM L-glutamine and 0.1 mM β-mercaptoethanol.
(§1) AP staining was performed using a commercial AP kit (Sigma) according to the manufacturer's instruction. Images of AP-positive cells were recorded with HP Scanjet G4010. Also, bight field images were obtained with an Olympus microscope (IX51, Olympus, Japan).
In order to verify the effect of nicotinamide on the maintenance of undifferentiated state of pluripotent stem cells, the present inventors performed the following experiment. While human embryonic stem cells and human pluripotent stem cells were cultured in MEF-CM or UM on feeder-free Matrigel, various NAD precursors including nicotinamide were added to the stem cells, and then the effects of the NAD precursors on the stem cells were verified by examining the morphological change and the expression pattern of AP that is a human embryonic stem cell-specific marker.
In addition, in order to examine the effects of nicotinamide at various concentrations, various concentrations of nicotinamide were added to UM, and the degrees of maintenance of undifferentiation of human embryonic stem cells and human induced pluripotent stem cells, which are pluripotent stem cells, were examined. […] However, it was shown that the addition of a low concentration (<0.01 mM) or high concentration (>5 mM) of nicotinamide could not maintain the undifferentiated state of pluripotent stem cells (FIG. 30).
The effect of nicotinamide effective for maintaining the undifferentiated state of human embryonic stem cells and human induced pluripotent stem cells, which are pluripotent stem cells, was verified under various conditions. […] In order to eliminate the use of feeder cell-derived factors and animal serum and ensure culture conditions including a medium (CDM) whose components are known, various concentrations of nicotinamide were added to mTeSR1 (CDM) without feeder cells, and the effects thereof were examined. As a result, it could be seen that the addition of 0.1 mM of nicotinamide was effective for maintaining the undifferentiated state of various human embryonic stem cell lines (H1 and H9) and the human induced pluripotent stem cell line (hiPS) (FIG. 31).

[2] = test system: human fibroblasts transfected with reprogramming factors; test: Reprogramming kinetics of hiPSCs (stem cell marker expression, time to colonies); type: cell-based
Protocol: Total RNA was isolated from produced cells using an RNeasy Mini kit (Qiagen, Valencia, Calif.) and reverse-transcribed using a SuperScript First-strand synthesis system kit (Invitrogen) according to the manufacturer's instruction. Then, semi-quantitative RT-PCR was performed using a platinum Tag SuperMix kit (Invitrogen) under the following conditions: 94° C. for 3 minutes, and then 25-30 cycles, each consisting of 94° C. for 30 sec, 60° C. for 30 sec and 72° C. for 30 sec, followed by extension at 72° C. for 10 minutes. For immunostaining, cells were seeded on Matrigel-coated 4-well Lab-Tek chamber slides (Nunc, Naperville, Ill.) and cultured for 5 days under the indicated conditions. The cells were fixed in 4% paraformaldehyde at room temperature for 15 minutes, and then washed with PBS/0.2% BSA. Next, the cells were passed through PBS/0.2% BSA/0.1% Triton X-100 for 15 minutes, and then incubated with 4% normal donkey serum (Molecular Probes, Eugene, Oreg., USA) in PBS/0.2% BSA at room temperature for 1 hour. The cells were diluted with PBS/0.2% BSA, and then reacted with primary antibody at 4° C. for 2 hours. After washing, the cells were reacted with FITC- or Alexa594-conjugated secondary antibody (Invitrogen) in PBS/0.2% BSA at room temperature for 1 hour. The cells were counter-stained with 10 μg/ml DAPI. […] From day 5 of culture (D5), the expression levels of the stem cell markers Nanog and Tra-1-60 in the cell group treated with nicotinamide increased by 3 times and 8 times, respectively, compared to those in the untreated group (FIG. 6).

[3] = test system: human fibroblasts transfected with reprogramming factor OSKM; test: Measurement of reactive oxygen species during reprogramming; type: cell-based; details: 1 mM, day 19 of induction of reprogramming
Protocol: On day 19 of induction of reprogramming, the cells were dissociated into single cells by trypsin, and then stained with 5 μM of CM-H2DCFDA (2,7-dichlorodihydrofluresceindiacetat) at 37° C. for 30 minutes. Cells treated with 100 μM of hydrogen peroxide (H2O2) were used as a positive control group for the formation of reactive oxygen species, and the degree of fluorescence staining was measured by flow cytometry and quantified.

embryonic stem cells = test: Embryonic stem cells treated with NAD+ synthesis inhibitor FK866 and NAD precursors (NAD level, AP activity, apoptosis); type: cell-based, human; details: co-treatment with FK866; also in mTeSR1-CDM
Protocol: Embryonic stem cells were treated with nicotinamide and related compounds, and after 6 days, protein was isolated from the cells. NAD cycling enzyme was added to and reacted with 20 μg of the protein per each group at room temperature for 5 minutes, and then a NADH developer was added and reacted therewith for 2-3 hours. The absorbance at 450 nm was measured using a microplate reader, and the amount of the […] was quantified.
as §1
In order to examine the effect of nicotinamide on a reduction in the apoptosis of human pluripotent stem cells, dual apoptosis assay (Biotium, Hayward, Calif.) was performed. Embryonic stem cells or cells reprogrammed were stained with NucView™488 Caspase-3 Substrate (green)/Annextin V (red) at room temperature for 30 minutes, followed by washing with PBS. At least 4 sections of each sample were imaged with an Olympus fluorescence microscope (IX51, Olympus), and the number of cells stained with green (Caspase-3) was counted to quantify the degree of apoptosis.

[4] = from day 5 of culture, compared to untreated group

## NC(=O)c1cccnc1 [nicotinamide]
[1]; 0.1 mM
  number of AP-positive cells when feeder cells were used: most increased
[1]
  undifferentiated state in UM: maintained in an undifferentiated state
[1]; listed as Nam
  undifferentiated state in UM: most effectively maintained
[1]; 0.1 mM, H1, H9 and hiPS
  maintaining the undifferentiated state in mTeSR1 (CDM) without feeder cells: effective
[1]; H9 in UM treated with nicotinamide (FIG. 29)
  induction of differentiation in UM, among NAD+ precursors and NAD+: most effectively inhibited
[1]; UM
  high concentration that could not maintain the undifferentiated state: > 5 mM
  low concentration that could not maintain the undifferentiated state: < 0.01 mM
[1]; UM containing nicotinamide (1 mM), 6 days, feeder-free Matrigel
  morphology of hESCs cultured in UM, in comparison with other NAD precursors: showed the morphology of undifferentiated human embryonic stem cells
[1]; hESCs and hiPSCs cultured in UM
  nicotinamide concentration in UM conserving undifferentiated morphology and positive AP expression: 0.1-1 mM
[2]; cells treated with nicotinamide, 3 weeks or more generally required
  period of time required until hiPSCs colonies: ≤ 2 weeks
[2]; [4]
  increase in expression level of stem cell marker Nanog (immunostaining): 3 times
  increase in expression level of stem cell marker Tra-1-60 (immunostaining): 8 times
[2]; from day 7, real-time PCR
  mRNA expression levels of Nanog and TERT: rapidly increased
[3]
  formation of reactive oxygen species: inhibited
Embryonic stem cells
  recovery from damage caused by FK866: recovered
